Assay results as given in ChEMBL document CHEMBL1140475, “Structure-activity relationship (SAR) investigations of substituted imidazole analogs as TRPV1 antagonists” (Bioorg Med Chem Lett, 2007).

Assays:
[1] = AUC (0 to infinity) in Sprague-Dawley rat at 1 mg/kg, iv; assay type: ADME, organism-based; design: time infinity, dose 1 mg/kg, route intravenous; details: plasma
[2] = molecular target: T1, Transient receptor potential cation channel subfamily V member 1 (Rattus norvegicus, UniProt O35433); assay: Antagonist activity at rat TRPV1 expressed in CHO cells assessed blocking of capsaicin-induced calcium influx; assay type: functional, cell-based
T1 sequence (O35433 whole entry): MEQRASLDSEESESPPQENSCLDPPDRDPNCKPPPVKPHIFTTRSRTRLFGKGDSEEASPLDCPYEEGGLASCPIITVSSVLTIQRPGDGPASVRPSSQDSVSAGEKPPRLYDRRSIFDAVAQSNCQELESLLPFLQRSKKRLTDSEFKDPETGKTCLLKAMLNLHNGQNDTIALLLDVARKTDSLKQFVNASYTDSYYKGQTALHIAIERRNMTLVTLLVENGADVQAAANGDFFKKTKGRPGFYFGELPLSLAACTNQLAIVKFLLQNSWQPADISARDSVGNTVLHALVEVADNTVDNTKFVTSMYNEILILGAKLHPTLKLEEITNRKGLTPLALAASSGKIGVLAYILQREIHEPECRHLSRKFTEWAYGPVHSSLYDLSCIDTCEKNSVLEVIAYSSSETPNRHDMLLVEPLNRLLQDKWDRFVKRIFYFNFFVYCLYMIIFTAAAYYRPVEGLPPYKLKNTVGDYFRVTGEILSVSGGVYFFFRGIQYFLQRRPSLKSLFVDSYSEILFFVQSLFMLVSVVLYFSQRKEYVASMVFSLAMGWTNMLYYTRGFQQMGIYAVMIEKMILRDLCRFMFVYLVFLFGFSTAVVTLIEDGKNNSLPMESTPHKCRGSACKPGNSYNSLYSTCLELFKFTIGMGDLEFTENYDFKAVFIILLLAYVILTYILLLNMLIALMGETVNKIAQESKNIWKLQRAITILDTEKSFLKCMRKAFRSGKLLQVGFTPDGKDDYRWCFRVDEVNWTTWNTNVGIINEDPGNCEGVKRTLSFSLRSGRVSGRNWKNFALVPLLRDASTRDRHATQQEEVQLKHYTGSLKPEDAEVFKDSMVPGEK

[3] = Half life in Sprague-Dawley rat at 1 mg/kg, iv; assay type: ADME, organism-based; design: dose 1 mg/kg, route intravenous; details: in vivo
[4] = Volume of distribution at steady state in Sprague-Dawley rat at 1 mg/kg, iv; assay type: ADME, organism-based; design: dose 1 mg/kg, route intravenous; details: in vivo, read-out: Vdss
[5] = Tmax in Sprague-Dawley rat at 5 mg/kg, po; assay type: ADME, organism-based; design: dose 5 mg/kg, route oral; details: in vivo
[6] = Cmax in Sprague-Dawley rat at 5 mg/kg, po; assay type: ADME, organism-based; design: dose 5 mg/kg, route oral; details: in vivo
[7] = Bioavailability in Sprague-Dawley rat at 5 mg/kg; assay type: ADME, organism-based; details: in vivo
[8] = Clearance in Sprague-Dawley rat at 1 mg/kg, iv; assay type: ADME, organism-based; design: dose 1 mg/kg, route intravenous; details: in vivo
[9] = molecular target: T1, Transient receptor potential cation channel subfamily V member 1; assay: Antagonist activity at rat TRPV1 expressed in CHO cells assessed blocking of acid-induced calcium influx at pH 5; assay type: functional, cell-based
[10] = AUC (0 to infinity) in Sprague-Dawley rat at 5 mg/kg, po; assay type: ADME, organism-based; design: time infinity, dose 5 mg/kg, route oral; details: plasma

Structure (SMILES) | IC50 [2] [µM] | IC50 [9] [µM] | other results
FC(F)(F)c1ccc(-c2[nH]c(N3CCN(c4ncccc4C(F)(F)F)CC3)nc2-c2ccccc2)cc1 | 0.107 | 0.216 | AUC(0-inf) [1]: 0.105 µg·h/mL; half-life [3]: 2.3 h; Vd [4]: 5 L/kg; Tmax [5]: 1.3 h; Cmax [6]: 0.013 µg/mL; bioavailability [7]: 6%; clearance [8]: 10 L/h/kg; AUC(0-inf) [10]: 0.03 µg·h/mL
Cc1nc(N2CCN(c3ncccc3C(F)(F)F)CC2)[nH]c1-c1ccc(C(F)(F)F)cc1 | 0.628 | > 4 | –
COC(=O)c1nc(N2CCN(c3ncccc3C(F)(F)F)CC2)[nH]c1-c1ccc(C(F)(F)F)cc1 | 1.17 | 0.18 | –
O=C(NCC1CCCCN1)c1nc(N2CCN(c3ncccc3C(F)(F)F)CC2)[nH]c1-c1ccc(C(F)(F)F)cc1 (stereo not given) | 2.95 | > 4 | –
FC(F)(F)c1cccc(-c2[nH]c(N3CCN(c4ncccc4C(F)(F)F)CC3)nc2-c2ccccc2)c1 | 1.24 | 0.165 | –
FC(F)(F)c1ccc(-c2nc(N3CCN(c4ncccc4C(F)(F)F)CC3)[nH]c2-c2ccc(C(F)(F)F)cc2)cc1 | 0.573 | 0.146 | –
Fc1cc(-c2nc(N3CCN(c4ncccc4C(F)(F)F)CC3)[nH]c2-c2cc(F)c(F)c(F)c2)cc(F)c1F | 0.044 | 0.032 | –
OCc1cnc(N2CCN(c3nc(-c4ccccc4)c(-c4ccc(C(F)(F)F)cc4)[nH]3)CC2)c(Cl)c1 | 0.09 | 0.16 | –
C[C@@H]1CN(c2ncc(CO)cc2Cl)CCN1c1nc(-c2ccccc2)c(-c2ccc(C(F)(F)F)cc2)[nH]1 | 0.026 | 0.029 | –
C[C@@H]1CN(c2ncc(CO)cc2Cl)CCN1c1nc(-c2cc(F)c(F)c(F)c2)c(-c2ccc(C(F)(F)F)cc2)[nH]1 | 0.001 | 0.004 | AUC(0-inf) [1]: 1.23 µg·h/mL; half-life [3]: 6.3 h; Vd [4]: 5.4 L/kg; Tmax [5]: 4.7 h; Cmax [6]: 0.347 µg/mL; bioavailability [7]: 40%; clearance [8]: 0.8 L/h/kg; AUC(0-inf) [10]: 2.46 µg·h/mL
CC(C)N1CCN(C(=O)c2nc(N3CCN(c4ncccc4C(F)(F)F)CC3)[nH]c2-c2ccc(C(F)(F)F)cc2)CC1 | 0.7 | 1 | –
CC(C)CN1CCCCC1CNC(=O)c1nc(N2CCN(c3ncccc3C(F)(F)F)CC2)[nH]c1-c1ccc(C(F)(F)F)cc1 (stereo not given) | 1.9 | > 4 | –
CCN1CCCC1CNC(=O)c1nc(N2CCN(c3ncccc3C(F)(F)F)CC2)[nH]c1-c1ccc(C(F)(F)F)cc1 (stereo not given) | 4.1 | 3.3 | –
C[C@@H]1CN(c2ncccc2C(F)(F)F)CCN1c1nc(-c2ccccc2)c(-c2ccc(C(F)(F)F)cc2)[nH]1 | 0.117 | 0.341 | –
FC(F)(F)c1ccc(-c2c[nH]c(N3CCN(c4ncccc4C(F)(F)F)CC3)n2)cc1 | 0.861 | > 4 | –
FC(F)(F)c1ccc(-c2nc(N3CCN(c4ncccc4C(F)(F)F)CC3)[nH]c2Cl)cc1 | 0.16 | > 4 | –
Fc1cc(-c2nc(N3CCN(c4ncccc4C(F)(F)F)CC3)[nH]c2-c2ccc(C(F)(F)F)cc2)cc(F)c1F | 0.007 | 0.02 | AUC(0-inf) [1]: 0.529 µg·h/mL; half-life [3]: 1.9 h; Vd [4]: 1.7 L/kg; Tmax [5]: 1 h; Cmax [6]: 0.017 µg/mL; bioavailability [7]: 3%; clearance [8]: 1.9 L/h/kg; AUC(0-inf) [10]: 0.08 µg·h/mL
Fc1cc(F)cc(-c2nc(N3CCN(c4ncccc4C(F)(F)F)CC3)[nH]c2-c2ccc(C(F)(F)F)cc2)c1 | 0.035 | 0.085 | –
